Laboratory results taken from article PMC3764137, “Sulphamoylated 2-Methoxyestradiol Analogues Induce Apoptosis in Adenocarcinoma Cell Lines” (PLoS ONE, 2013).
“Also recorded” adds a separate entry of the source.

Key:
[1] = system: human umbilical vein endothelial cells (HUVECs); conditions: 500 nM, 72 hours of exposure; ref 13 (Foster et al. 2008); cited from earlier work
[2] = system: tubulin; test: Tubulin polymerization assay (DAPI fluorescence); type: biochemical; conditions: for EC50: in vitro tubulin polymerization, read-out: tubulin polymerization inhibition EC50
Procedure: Briefly, microtubule assembly was conducted in a half area 96 well black plate using a microplate reader FLUOstar OPTIMA (BMG Labtechnologies). […] Following 10 min incubation, assembly was initiated by injection of GTP and MgCl2 to a final concentration of 1 mM and 5 mM respectively, yielding a reaction volume of 100 µl. The excitation and emission wavelengths were set at 360 and 450 nm, respectively, and the fluorescence of microtubule-bound DAPI was monitored as a function of time at 37°C. Fluorescence signal at time 0 for each well was subtracted from each of the subsequent fluorescence readings, [22].

[3] = system: MCF-7 cell line; conditions: cited from earlier work
[4] = system: MDA-MB-231; conditions: 500 nM, 72 hours of exposure; ref 13 (Foster et al. 2008); cited from earlier work
[5] = system: HeLa cells; test: Cell morphology by transmission electron microscopy; type: cell-based, human; conditions: 24 h
Procedure: The in vitro influence of ESE-15-one, EMBS and ESE-16 on cell morphology was determined after exposure for 24 h using transmission electron microscopy (TEM). […] After each fixation step the samples were rinsed 3 times in 0.0075 M sodium phosphate buffer (pH 7.4). Samples were dehydrated using increasing concentrations of ethanol (30%, 50%, 70%, 90%, and 3×100%) and embedded in Quetol resin, sectioned with a microtome and placed on copper discs. Sections were contrasted with 4% aqueous uranyl acetate and Reynolds' lead citrate and viewed with a JOEL JEM 2100F transmission electron microscope (Electron Microscopy Unit, University of Pretoria, South Africa).

[6] = system: MDA-MB-231 cells; test: Double immunofluorescence of intracellular microtubules; type: cell-based, human; conditions: MDA-MB-231, 24 h; 0.189 μM ESE-15-one, 0.5 μM EMBS and ESE-16, 1μM colchicine
Procedure: (§1) In order to visualize the effect of the 2ME2 analogues on microtubule dynamics and integrity, a double immunofluorescence technique using antibodies against tyrosinated and detyrsosinated tubulin was conducted as described by Paturle-Lafanechère et al. (2004). HeLa and MDA-MB-231 cells were seeded onto sterilized coverslips and allowed to grow to 80% confluency for 48 h. Cells were exposed to 0.189 μM ESE-15-one, 0.5 μM EMBS and ESE-16 along with DMSO (negative control) and 1μM colchicine as a positive control for 24 h. Cells were permeablised permeabilized with warmed OPT buffer (80 mmol/L Pipes, […], […], 0.5% Triton X-100 and glycerol 10%, pH 6.8), followed by fixation in ice-cold methanol at −20°C and were subsequently incubated with the primary antibody cocktail (PBS containing anti-detyrosinated tubulin (L4), anti-[…], BSA 0.3%, tween 0.1%). After incubation, cells were incubated with the secondary antibodies, namely Alexa 488 (Invitrogen) and Cy3 (Jackson ImmunoResearch laboratories). Samples were visualized using a Zeiss AxioImager Z1 microscope controlled by Axiovision softwared (Carl Zeiss) (X63 oil objective). Images were captured using an Ocra R2 N/B camera (Hamamatsu) and assessed for microtubule integrity and ratio of tyrosinated to detyrosinated tubulin.

[7] = system: HeLa cells; test: as above; type: cell-based, human; conditions: 24 h, 0.189 μM ESE-15-one, 0.5 μM EMBS and ESE-16, 1μM colchicine
Procedure: as §1

[8] = system: HeLa cells; test: Cell number determination by crystal violet staining; type: cell-based, human; conditions: for cell growth: 24 h
Procedure: Crystal violet is a method used to determine the number of cells by staining the deoxyribonucleic acid (DNA). Gillies et al. (1986) used crystal violet to quantify cell number in monolayer cultures as a function of the absorbance of the dye taken up by the cells. A dose-dependent study was chosen with a concentration range of 0.1–25 μM since it was previously observed in our laboratory that this concentration series exerts antiproliferative activity in HeLa cells. Exponentially growing HeLa cells were seeded in 96 well tissue culture plates at a cell density of 5,000 cells per well. Cells were incubated at 37°C in a humidified atmosphere containing 5% CO2 for 24 h to allow for attachment. To establish the starting number of cells, a baseline determination was conducted before exposure. Subsequently, the medium was discarded and cells were exposed to the sulphamoylated 2ME2 analogues at a concentration series of 0.1–25 μM for the 24 h at 37°C. Vehicle-treated controls were also included. Cells were fixed with 100 µl of 1% gluteraldehyde (incubation for 15 min at room temperature). Gluteraldehyde was discarded and cells were stained using 100 µl 0.1% crystal violet (incubated at room temperature for 30 min). Excedent crystal violet was discarded and the 96 well plate was submersed under running water. Cells were solubilized using 200 µl 0.2% Triton X-100 and incubated at room temperature for 30 min. Solution (100 µl) was transferred to a new microtitre plate. Afterwards, the absorbance was determined at 570 nm using an ELx800 Universal Microplate Reader available from Bio-Tek Instruments Inc. (Vermont, United States of America).

[9] = system: caspase-6; test: Caspase 6 colorimetric assay; type: cell-based, human; conditions: 0.5 μM, 24 h
Procedure: (§2) Possible activation of caspase 3, -6 and -8 was investigated by means of caspase 3, caspase 6 and FLICE/caspase 8 colorimetric kits, respectively. Cells (1,000,000) were seeded with an overnight attachment policy. After 24 h of exposure to 0.5 μM of the sulphamoylated 2ME2 analogues, cells were detached with trypsin and centrifuged at 13,000× g. Cells (500,000) were resuspended in 50 µl of chilled cell lysis buffer and incubated on ice for 10 min. Cells were centrifuged at 10,000×g for a min. Supernatant was transferred to a fresh tube and put on ice. After determination of the protein concentration using the bicinchoninic acid (BCA) protein assay (Thermo Fisher Scientific, Johannesburg, South Africa), 100 µg protein/50 µl cell lysis buffer was mixed with 50 µl 2X reaction buffer (containing 10 mM Dithiothreitol (DTT)). Ac-Asp-Glu-Val-Asp-p-nitroanilide (Ac-DEVD-pNA) (5 µl of 4 mM) (caspase-3-specific substrate), or 5 µl 4 mM […] (Ac-VEID-pNA) (caspase-6-specific substrate), or 5 µl 4 mM Ac-Ile-Glu-Thr-Asp-p-nitroanilide (Ac-IETD-pNA) (caspase-8-specific substrate) was added and the mixture was incubated at 37°C for 120 min (200 µM final concentration). Absorbance was determined at 405 nm on the ELx800 Universal Microplate Reader available from Bio-Tek Instruments Inc. (Vermont, United States of America).

[10] = system: caspase-8; test: FLICE/caspase 8 colorimetric assay; type: cell-based, human; conditions: 0.5 μM, 24 h
Procedure: as §2

[11] = system: MDA-MB-231 cells; test: Cytochrome c release (FlowCellect, flow cytometry); type: cell-based, human; conditions: MDA-MB-231, 0.5 μM analogues (2-methoxyestradiol-bis-sulphamate 0.55 μM), 24 h
Procedure: (§3) This kit utilizes a unique set of buffers that selectively permeabilizes the […] without affecting the mitochondrial membrane. […] Cells (500,000) were seeded with an overnight attachment policy. After 24 h of exposure to 0.5 μM of the sulphamoylated 2ME2 analogues, cells were detached using trypsin and centrifuged at 13,000×g. Cells (500,000) were resuspended in PBS, centrifuged and resuspended in permeabilization buffer (according to supplier's instructions) for 10 min on ice. Subsequently cells were centrifuged, resuspended in 100 µl fixation buffer (according to supplier's instructions) for 20 min at room temperature, centrifuged again and resuspended in blocking buffer (150 µl). After another centrifugation step, cells were centrifuged and resuspended in blocking buffer (twice). Anti-cytochrome c-FITC (10 µl) was added to each sample and samples were incubated for 30 min at room temperature. Cells were centrifuged and blocking buffer (100 µl) was added. After centrifugation, blocking buffer (200 µl) was added to the samples for analysis via flow cytometry (FC500 System flow cytometer, Beckman Coulter South Africa (Pty) Ltd). Cells presenting with cytochrome c release were detected in the fluorescein isothiocyanate (FITC) channel (FL1) showing diffused green fluorescence. Data from at least 10 000 cells were analyzed by means of Cyflogic version 1.2.1 software (Pertu Therho, Turko, Finland).

[12] = system: HeLa cells; test: Cytochrome c release (FlowCellect, flow cytometry); type: cell-based, human; conditions: 0.5 μM analogues (2-methoxyestradiol-bis-sulphamate 0.55 μM), 24 h
Procedure: as §3

[13] = system: HeLa cells; test: Mitochondrial membrane potential assay (Mitocapture, flow cytometry); type: cell-based, human; conditions: 0.5 μM analogues (2-methoxyestradiol-bis-sulphamate 0.55 μM), 24 h
Procedure: Cells (500,000) were seeded with an overnight attachment policy. After 24 h of exposure to 0.5 μM of the sulphamoylated 2ME2 analogues, cells were detached using trypsin and centrifuged at 13,000×g.

[14] = system: caspase 3; conditions: HeLa cells; another study conducted in our laboratory (data not shown); cited from earlier work

| SMILES | inner mitochondrial membrane potential [1] | EC50 [2] | concentration with antiproliferative activity [3] | inner mitochondrial membrane potential [4] | apoptotic bodies (TEM) [5] | vacuoles (TEM) [5] | microtubule integrity [6] | microtubule integrity [7] | effect on tubulin polymerization ([2]; in vitro) | cell growth ([8]; 0.1 µM) | cell growth ([8]; 0.5 µM, compared to vehicle-treated cells) | concentration that significantly inhibits HeLa proliferation ([8]; 24 h of exposure) | caspase-6 activity ratio compared to vehicle-treated cells [9] | caspase-8 activity increase compared to vehicle-treated cells [10] | Cytochrome c in cytoplasm (cells with cytochrome c release) [11] | Cytochrome c in cytoplasm (cells with cytochrome c release) [12] | cell shrinkage (TEM) ([5]; compared to vehicle-treated cells) | cells with reduced mitochondrial potential [13] | caspase 3 activity increase [14] |
| --- | --- | --- | --- | --- | --- | --- | --- | --- | --- | --- | --- | --- | --- | --- | --- | --- | --- | --- | --- |
| COc1cc2c(cc1OS(N)(=O)=O)CC[C@@H]1[C@@H]2CC[C@]2(C)[C@@H](OS(N)(=O)=O)CC[C@@H]12 [2-methoxyestradiol-bis-sulphamate, reference compound] | depolarized | 11 µM | 0.1 to 1 µM | depolarized | Apoptotic bodies were observed | vacuoles | – | – | – | – | – | – | – | – | – | – | – | – | – |
| CCc1cc2c(cc1OS(N)(=O)=O)CC[C@@H]1[C@@H]2CC[C@]2(C)C=CC[C@@H]12 [ESE-16, 2-ethyl-3-O-sulphamoyl-estra-1,3,5 (10) 16-tetraene] | – | 5 µM | – | – | Apoptotic bodies were observed | vacuoles | detyrosinated microtubule fragments | microtubule abrogation; also recorded: complete microtubule depolymerisation | more pronounced effect on tubulin polymerization; also recorded: pronounced effect comparable with that of colchicine | 45.59% | 45.30% | 0.5 µM | 3.2 | 1.7 fold | 30% | 10% | shrunken | 68.43% | 8 fold |
| COc1cc2c(c(OC)c1OC)-c1ccc(OC)c(=O)cc1[C@@H](NC(C)=O)CC2 [colchicine, reference compound] | – | – | – | – | – | – | complete microtubule depolymerisation | only fragments of detyrosinated microtubules remaining; also recorded: complete microtubule depolymerisation | – | – | – | – | – | – | – | – | – | – | – |
